The text below walks through data of paper PMC5152921, “Evolutionary and Functional Diversification of the Vitamin D Receptor-Lithocholic Acid Partnership” (PLoS ONE, 2016).

What all share (experiment): Mammalian 2-hybrid assay (VDR-coregulator interaction, HepG2)
What all share (assay type): cell-based
Details in all cases: 100 μM LCA

For one assay, the target named is T1, Medaka VDRβ (Oryzias latipes, UniProt B2CCA1).
T1 sequence (B2CCA1 1-425): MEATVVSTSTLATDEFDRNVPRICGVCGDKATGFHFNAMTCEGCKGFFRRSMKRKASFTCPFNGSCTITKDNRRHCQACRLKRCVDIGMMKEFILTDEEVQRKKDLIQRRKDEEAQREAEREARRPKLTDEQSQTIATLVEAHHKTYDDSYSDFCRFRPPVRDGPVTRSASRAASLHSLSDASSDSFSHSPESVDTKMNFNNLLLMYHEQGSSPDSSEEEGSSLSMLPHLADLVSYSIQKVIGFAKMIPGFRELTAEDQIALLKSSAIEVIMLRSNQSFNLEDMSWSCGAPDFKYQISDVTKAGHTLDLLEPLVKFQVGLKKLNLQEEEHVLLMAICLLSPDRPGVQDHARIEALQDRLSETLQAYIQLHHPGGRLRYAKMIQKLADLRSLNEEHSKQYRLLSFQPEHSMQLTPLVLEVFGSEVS
T1 sequence (P19793 1-462 partner): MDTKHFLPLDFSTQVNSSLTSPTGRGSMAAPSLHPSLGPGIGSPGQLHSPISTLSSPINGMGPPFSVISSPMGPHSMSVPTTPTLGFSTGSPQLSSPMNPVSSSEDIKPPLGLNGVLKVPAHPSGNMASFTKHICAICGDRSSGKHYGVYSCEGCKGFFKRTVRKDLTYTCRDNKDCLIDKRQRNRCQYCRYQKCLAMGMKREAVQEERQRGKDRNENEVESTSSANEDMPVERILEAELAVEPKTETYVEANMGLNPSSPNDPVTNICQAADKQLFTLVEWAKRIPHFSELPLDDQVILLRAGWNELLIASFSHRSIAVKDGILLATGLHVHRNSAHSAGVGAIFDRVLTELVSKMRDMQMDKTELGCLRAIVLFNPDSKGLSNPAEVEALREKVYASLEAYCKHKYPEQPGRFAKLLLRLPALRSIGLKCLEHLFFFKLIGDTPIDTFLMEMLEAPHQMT
The text has this: (§1) Prey constructs included full-length VDRs fused to the herpes simplex VP16 activation domain (pVP16-VDR). Bait constructs consisted of either full-length wild-type human RXR (pM-RXRWT), a truncated human RXR mutant (pM-RXRAF2), or the defined NR box of each member of the SRC/p160 family (pM-SRC1_241-386, pM-GRIP1_479-767, or pM-ACTR392-1005) fused to the yeast Gal4 DNA-binding domain. Reporters included the Gal4 luciferase reporter (5xGal4-TATA-Luc) and pRL-CMV as an internal luciferase control.
(§2) HepG2 cells were seeded into 96-well tissue culture plates as described above and transfected with Lipofectamine 2000 the following day. Each well received 33.6 ng pVP16-VDR, 33.6 ng pM-coregulator (where indicated), 126.6 ng 5XGal4-TATA-Luc, and 3 ng pRL-CMV. […] Positive controls were treated with 1,25D3 and vehicle controls were treated with ethanol. Luciferase activity was measured 24 hours post-exposure using the Dual-Glo Luciferase Assay System described above. Raw luciferase data were normalized to the pRL-CMV luciferase control. VDR-coregulator response was normalized to the pVP16-VDR in the absence of bait constructs. Results were analyzed using a two-way ANOVA followed by Bonferroni’s multiple comparisons test in Prism (GraphPad Inc, San Diego, CA). All experiments were replicated 3 times and conducted as groups of 4 replicate wells.

The target in the next assay is T2, Human VDR (Homo sapiens, UniProt P11473).
T2 sequence (P11473 1-427): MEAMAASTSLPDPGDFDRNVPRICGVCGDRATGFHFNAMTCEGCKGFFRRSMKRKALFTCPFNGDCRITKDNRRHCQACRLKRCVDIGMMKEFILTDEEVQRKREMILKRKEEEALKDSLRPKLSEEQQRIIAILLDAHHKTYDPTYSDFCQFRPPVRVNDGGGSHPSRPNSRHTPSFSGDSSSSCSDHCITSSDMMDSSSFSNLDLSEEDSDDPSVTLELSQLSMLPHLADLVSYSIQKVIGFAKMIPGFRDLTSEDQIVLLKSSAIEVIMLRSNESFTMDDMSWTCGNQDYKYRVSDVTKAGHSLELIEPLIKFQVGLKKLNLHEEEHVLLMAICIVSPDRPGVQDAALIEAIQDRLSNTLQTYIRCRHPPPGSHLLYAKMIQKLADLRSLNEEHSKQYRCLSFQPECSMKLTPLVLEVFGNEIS
Description: as §1, §2

In another assay the target is T3, Skate VDR (Leucoraja erinacea, UniProt A0A088GDQ7).
T3 sequence (A0A088GDQ7 1-434): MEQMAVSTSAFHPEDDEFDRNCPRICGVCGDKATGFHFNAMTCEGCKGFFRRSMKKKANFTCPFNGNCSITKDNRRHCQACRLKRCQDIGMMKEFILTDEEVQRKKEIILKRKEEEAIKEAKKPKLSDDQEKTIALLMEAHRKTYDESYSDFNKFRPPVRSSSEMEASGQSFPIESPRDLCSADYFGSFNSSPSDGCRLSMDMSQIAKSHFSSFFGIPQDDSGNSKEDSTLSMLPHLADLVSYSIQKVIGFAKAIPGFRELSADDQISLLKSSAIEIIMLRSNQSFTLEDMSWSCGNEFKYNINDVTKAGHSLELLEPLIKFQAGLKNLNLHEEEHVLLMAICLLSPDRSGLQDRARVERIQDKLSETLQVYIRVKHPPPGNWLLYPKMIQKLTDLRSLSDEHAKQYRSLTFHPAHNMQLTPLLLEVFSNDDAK
T3 sequence (P19793 1-462 partner): T1 sequence (P19793 1-462 partner)
Description: as §1, §2

For a further assay, the target named is T4, Zebrafish VDRβ (Danio rerio, UniProt Q1L673).
T4 sequence (Q1L673 1-422): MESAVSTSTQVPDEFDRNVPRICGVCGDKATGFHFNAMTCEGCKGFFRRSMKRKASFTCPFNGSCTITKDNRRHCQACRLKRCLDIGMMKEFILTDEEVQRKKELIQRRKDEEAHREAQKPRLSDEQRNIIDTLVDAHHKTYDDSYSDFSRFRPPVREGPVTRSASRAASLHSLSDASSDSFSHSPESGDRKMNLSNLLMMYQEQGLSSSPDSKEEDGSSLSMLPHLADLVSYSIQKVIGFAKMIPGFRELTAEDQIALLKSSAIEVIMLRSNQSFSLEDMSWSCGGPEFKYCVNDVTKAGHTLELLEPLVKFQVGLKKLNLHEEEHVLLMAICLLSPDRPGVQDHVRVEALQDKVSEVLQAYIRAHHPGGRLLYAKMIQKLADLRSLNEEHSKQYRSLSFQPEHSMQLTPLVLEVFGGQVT
More on the design: expressed in transfected cells; host or cells: HepG2.
Description: as §1, §2

[1] abbreviates: bait human RXRWT, presence and absence of SRC1.

As to `C[C@H](CCC(=O)O)[C@H]1CC[C@H]2[C@@H]3CC[C@@H]4C[C@H](O)CC[C@]4(C)[C@H]3CC[C@]12C` [LCA, 5β-cholanic acid-3α-ol], the “VDR-RXRWT interaction (heterodimerization)” value was “Robust and significant VDR-RXRWT interactions” at Medaka VDRβ (bait human RXRWT); “Robust and significant VDR-RXRWT interactions” on Human VDR (bait human RXRWT); “not observed” at Skate VDR (setting [1]); “not observed” at Zebrafish VDRβ (setting [1]). The VDR-SRC1 interaction result on Medaka VDRβ (cotransfection of RXRWT) was “strong VDR-SRC1 interactions”; on Human VDR (absence of cotransfected RXRWT) it was “successfully recruited SRC1”; at Human VDR (cotransfection of RXRWT), “strong VDR-SRC1 interactions”; at Zebrafish VDRβ (cotransfection of RXRWT), “strong VDR-SRC1 interactions”. Also, the VDR-SRC/p160 coactivator interaction result at Skate VDR (any of the SRC/p160 coactivators) was “No protein-protein interaction was observed”.
